In patent publication US20230357249A1, “ANDROGEN RECEPTOR PROTEIN DEGRADERS WITH A TRICYCLIC CEREBLON LIGAND” (THE REGENTS OF THE UNIVERSITY OF MICHIGAN, priority 2020, published 2023):

Target: T1, AR protein (Homo sapiens, UniProt P10275)
T1 construct: endogenous in cells; host or cells: VCaP
T1 sequence (P10275 1-920): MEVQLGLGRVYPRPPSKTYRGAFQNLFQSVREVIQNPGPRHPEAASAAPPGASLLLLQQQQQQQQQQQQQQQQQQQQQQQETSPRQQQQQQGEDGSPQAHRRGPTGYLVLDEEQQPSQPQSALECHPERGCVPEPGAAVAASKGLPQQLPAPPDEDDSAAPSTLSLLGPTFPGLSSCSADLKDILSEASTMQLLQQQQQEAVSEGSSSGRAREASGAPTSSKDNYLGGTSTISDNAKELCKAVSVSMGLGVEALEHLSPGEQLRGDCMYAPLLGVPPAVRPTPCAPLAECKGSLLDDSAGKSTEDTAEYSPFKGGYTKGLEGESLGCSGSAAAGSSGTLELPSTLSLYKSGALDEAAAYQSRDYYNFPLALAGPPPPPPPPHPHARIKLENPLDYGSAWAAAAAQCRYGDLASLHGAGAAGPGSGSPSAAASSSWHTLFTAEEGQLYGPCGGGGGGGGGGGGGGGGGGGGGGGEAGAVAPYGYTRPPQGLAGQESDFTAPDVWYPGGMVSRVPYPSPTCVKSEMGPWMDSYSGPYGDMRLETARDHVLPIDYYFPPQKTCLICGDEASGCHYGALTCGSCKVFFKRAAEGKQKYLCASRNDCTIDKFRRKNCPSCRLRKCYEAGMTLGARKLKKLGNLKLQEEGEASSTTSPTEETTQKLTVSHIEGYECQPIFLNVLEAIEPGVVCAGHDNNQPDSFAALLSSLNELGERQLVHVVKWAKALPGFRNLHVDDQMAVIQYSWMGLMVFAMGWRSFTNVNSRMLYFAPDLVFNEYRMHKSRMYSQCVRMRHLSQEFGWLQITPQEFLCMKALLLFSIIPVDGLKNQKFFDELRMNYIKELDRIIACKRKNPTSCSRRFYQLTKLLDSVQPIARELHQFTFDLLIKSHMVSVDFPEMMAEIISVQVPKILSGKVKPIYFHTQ
Assay: AR protein degradation in VCaP cells, Western blotting
Type: cell-based
Set-up: key to AR protein degradation VCap 10 nM / AR protein degradation VCap 100 nM: A: >90% degradation (24 hr treatment); B: >50% degradation but <90% (24 hr treatment); C: >10% degradation but <50% (24 hr treatment); D: No significant degradation (24 hr treatment)
Details: 24 hr treatment; for percent AR protein degradation at 0.01 µM / AR protein degradation VCap 10 nM: 10 nM; for percent AR protein degradation at 0.1 µM / AR protein degradation VCap 100 nM: 100 nM
Method: The appropriate cell line, e.g., prostate cancer LNCaP, Vcap, or 22RV1 cell line, was treated with Compounds of the Disclosure as indicated. The treated cells were lysed with RIPA buffer. The AR level in the cell lysates was examined by western blotting and a specific AR antibody (ab194196, Abcam, Cambridge, MA 02139) with concentration of 1:20,000. GAPDH was used as a loading control.
Bands were quantified with ImageJ software. The relative numbers of each band obtained from normalization with its corresponding GAPDH level were compared with Prism 8 software. The DC50 values were produced from Prism 8, and the DC90 values were calculated with an equation=Bottom + (Top-Bottom)/(1+10^((LogEC50-X)*HillSlope) based on DC50 and Hillslope values.
The amount of AR protein degradation in VCap and MDA-MB-453 cells caused by representative Compounds of the Disclosure at the concentrations indicated is presented in Table 4, FIG. 1, and FIG. 2.

Compound | percent AR protein degradation at 0.01 µM [%] | percent AR protein degradation at 0.1 µM [%] | AR protein degradation VCap 10 nM | AR protein degradation VCap 100 nM
CC1(C)[C@H](Oc2ccc(C#N)c(Cl)c2)C(C)(C)[C@H]1N1Cc2cc(C(=O)N3CCC(N4Cc5cc6c(cc5C4)C(=O)N(C4CCC(=O)NC4=O)C6=O)CC3)ccc2C1=O (stereo partly shown) [compound 5] | 10 to 50 | 10 to 50 |  | 
CC1(C)[C@H](Oc2ccc(C#N)c(Cl)c2)C(C)(C)[C@H]1N1Cc2cc(C(=O)N3CCC(CN4Cc5cc6c(cc5C4)C(=O)N(C4CCC(=O)NC4=O)C6=O)CC3)ccc2C1=O (stereo partly shown) [compound 6] | 10 to 50 | 10 to 50 |  | 
CC1(C)[C@H](Oc2ccc(C#N)c(Cl)c2)C(C)(C)[C@H]1N1Cc2cc(C(=O)N3CCC(CCN4Cc5cc6c(cc5C4)C(=O)N(C4CCC(=O)NC4=O)C6=O)CC3)ccc2C1=O (stereo partly shown) [compound 7] | 50 to 90 | > 90 |  | 
N#Cc1ccc(N[C@H]2CC[C@H](NC(=O)c3ccc(N4CCC(N5Cc6cc7c(cc6C5)C(=O)N(C5CCC(=O)NC5=O)C7=O)CC4)cc3)CC2)cc1Cl (stereo partly shown) [compound 17] | > 90 | > 90 |  | 
N#Cc1ccc(N[C@H]2CC[C@H](NC(=O)c3ccc(N4CCC(CN5Cc6cc7c(cc6C5)C(=O)N(C5CCC(=O)NC5=O)C7=O)CC4)cc3)CC2)cc1Cl (stereo partly shown) [compound 18] | 50 to 90 | > 90 |  | 
CN(c1ccc(C#N)c(Cl)c1)C1CCC(NC(=O)c2ccc(N3CCC(N4Cc5cc6c(cc5C4)C(=O)N(C4CCC(=O)NC4=O)C6=O)CC3)cc2)CC1 (stereo not shown) [compound 19, N-((1r,4r)-4-((3-chloro-4-cyanophenyl)(methyl)amino)cyclohexyl)-4-(4-(6-(2,6-dioxopiperidin-3-yl)-5,7-dioxo-3,5,6,7-tetrahydropyrrolo [3,4-f]isoindol-2(1H)-yl)piperidin-1-yl)benzamide] | > 90 | > 90 |  | 
CN(c1ccc(C#N)c(Cl)c1)[C@H]1CC[C@H](NC(=O)c2ccc(N3CCC(CN4Cc5cc6c(cc5C4)C(=O)N(C4CCC(=O)NC4=O)C6=O)CC3)cc2)CC1 (stereo partly shown) [compound 20, N-((1r,4r)-4-((3-chloro-4-cyanophenyl)(methyl)amino)cyclohexyl)-4-(4-((6-(2,6-dioxopiperidin-3-yl)-5,7-dioxo-3,5,6,7-tetrahydropyrrolo [3,4-f]isoindol-2(1H)-yl)methyl)piperidin-1-yl)benzamide] | > 90 | > 90 |  | 
N#Cc1ccc(N[C@H]2CC[C@H](NC(=O)c3ccc(N4CC(CN5Cc6cc7c(cc6C5)C(=O)N(C5CCC(=O)NC5=O)C7=O)C4)cc3)CC2)cc1Cl (stereo partly shown) [compound 22] | 50 to 90 | > 90 |  | 
CN(c1ccc(C#N)c(Cl)c1)[C@H]1CC[C@H](NC(=O)c2ccc(N3CC(CN4Cc5cc6c(cc5C4)C(=O)N(C4CCC(=O)NC4=O)C6=O)C3)cc2)CC1 (stereo partly shown) [compound 23] | > 90 | > 90 |  | 
N#Cc1ccc(N2CC[C@H]3C[C@H](NC(=O)c4ccc(N5CCC(CN6Cc7cc8c(cc7C6)C(=O)N(C6CCC(=O)NC6=O)C8=O)CC5)cc4)CC[C@H]32)cc1Cl (stereo partly shown) [compound 26] | 10 to 50 | 50 to 90 |  | 
C[C@H]1CCN(c2ccc(C(=O)N3CCC(N4Cc5cc6c(cc5C4)C(=O)N(C4CCC(=O)NC4=O)C6=O)CC3)cc2)CCN1c1ccc(C#N)c(Cl)c1 (stereo partly shown) [compound 119] | 50 to 90 | 50 to 90 |  | 

The remaining lines, values ahead:

percent AR protein degradation at 0.01 µM [%] | percent AR protein degradation at 0.1 µM [%] | AR protein degradation VCap 10 nM | AR protein degradation VCap 100 nM | Compound
> 90 | > 90 |  |  | N#Cc1ccc(O[C@H]2CC[C@H](NC(=O)c3ccc(N4CCC(CN5Cc6cc7c(cc6C5)C(=O)N(C5CCC(=O)NC5=O)C7=O)CC4)cc3)CC2)cc1Cl (stereo partly shown) [compound 8, N-((1r,4r)-4-(3-chloro-4-cyanophenoxy)cyclohexyl)-4-(4-((6-(2,6-dioxopiperidin-3-yl)-5,7-dioxo-3,5,6,7-tetrahydropyrrolo[3,4-f]isoindol-2(1H)-yl)methyl)piperidin-1-yl)benzamide]
 | 50 to 90 | D |  | N#Cc1ccc(O[C@H]2CC[C@H](Nc3ccc(C(=O)N4CCC(CN5Cc6cc7c(cc6C5)C(=O)N(C5CCC(=O)NC5=O)C7=O)CC4)cc3)CC2)cc1Cl (stereo partly shown) [compound 9]
 | 50 to 90 | D |  | N#Cc1ccc(O[C@H]2CC[C@H](Nc3ccc(C(=O)N4CCC(N5Cc6cc7c(cc6C5)C(=O)N(C5CCC(=O)NC5=O)C7=O)CC4)cc3)CC2)cc1Cl (stereo partly shown) [compound 10]
 |  | D | D | N#Cc1ccc(O[C@H]2CC[C@H](Oc3ccc(C(=O)N4CCC(N5Cc6cc7c(cc6C5)C(=O)N(C5CCC(=O)NC5=O)C7=O)CC4)cc3)CC2)cc1Cl (stereo partly shown) [compound 11]
 |  | D | D | N#Cc1ccc(O[C@H]2CC[C@H](Oc3ccc(C(=O)N4CCC(CN5Cc6cc7c(cc6C5)C(=O)N(C5CCC(=O)NC5=O)C7=O)CC4)cc3)CC2)cc1Cl (stereo partly shown) [compound 12]
> 90 | > 90 |  |  | C[C@H]1C[C@H](NC(=O)c2ccc(N3CCC(N4Cc5cc6c(cc5C4)C(=O)N(C4CCC(=O)NC4=O)C6=O)CC3)cc2)CC[C@H]1Oc1ccc(C#N)c(Cl)c1 (stereo partly shown) [compound 13]
> 90 | > 90 |  |  | C[C@H]1C[C@H](NC(=O)c2ccc(N3CCC(CN4Cc5cc6c(cc5C4)C(=O)N(C4CCC(=O)NC4=O)C6=O)CC3)cc2)CC[C@H]1Oc1ccc(C#N)c(Cl)c1 (stereo partly shown) [compound 14]
> 90 | > 90 |  |  | C[C@H]1C[C@@H](NC(=O)c2ccc(N3CCC(CN4Cc5cc6c(cc5C4)C(=O)N(C4CCC(=O)NC4=O)C6=O)CC3)cc2)CC[C@@H]1Oc1ccc(C#N)c(Cl)c1 (stereo partly shown) [compound 15]
> 90 | > 90 |  |  | C[C@H]1C[C@@H](NC(=O)c2ccc(N3CCC(N4Cc5cc6c(cc5C4)C(=O)N(C4CCC(=O)NC4=O)C6=O)CC3)cc2)CC[C@@H]1Oc1ccc(C#N)c(Cl)c1 (stereo partly shown) [compound 16]
50 to 90 | > 90 |  |  | N#Cc1ccc(O[C@H]2CC[C@H](NC(=O)c3ccc(N4CC(CN5Cc6cc7c(cc6C5)C(=O)N(C5CCC(=O)NC5=O)C7=O)C4)cc3)CC2)cc1Cl (stereo partly shown) [compound 21]
> 90 | > 90 |  |  | N#Cc1ccc(O[C@H]2CC[C@H](NC(=O)c3ccc4c(c3)CCN(C(=O)CN3Cc5cc6c(cc5C3)C(=O)N(C3CCC(=O)NC3=O)C6=O)C4)CC2)cc1Cl (stereo partly shown) [compound 24]
> 90 | > 90 |  |  | N#Cc1ccc(O[C@H]2CC[C@H](NC(=O)c3ccc4c(c3)CCN(C(=O)CN3Cc5cc6c(cc5C3)C(=O)N(C3CCC(=O)NC3=O)C6=O)CC4)CC2)cc1Cl (stereo partly shown) [compound 25]
50 to 90 | > 90 |  |  | N#Cc1ccc(O[C@H]2CC[C@H](NC(=O)c3ccc4c(c3)CCN(CC(=O)N3Cc5cc6c(cc5C3)C(=O)N(C3CCC(=O)NC3=O)C6=O)C4)CC2)cc1Cl (stereo partly shown) [compound 27, N-((1r,4r)-4-(3-chloro-4-cyanophenoxy)cyclohexyl)-2-(2-(6-(2,6-dioxopiperidin-3-yl)-5,7-dioxo-3,5,6,7-tetrahydropyrrolo[3,4-f]isoindol-2(1H)-yl)-2-oxoethyl)-1,2,3,4-tetrahydroisoquinoline-6-carboxamide]
50 to 90 | 50 to 90 |  |  | N#Cc1ccc(O[C@H]2CC[C@H](NC(=O)c3ccc4c(c3)CCN(CC(=O)N3CCc5cc6c(cc5C3)C(=O)N(C3CCC(=O)NC3=O)C6=O)C4)CC2)cc1Cl (stereo partly shown) [compound 28]
50 to 90 | > 90 |  |  | N#Cc1ccc(O[C@H]2CC[C@H](NC(=O)c3ccc4c(c3)CCN(CC(=O)N3CCc5cc6c(cc5C3)C(=O)N(C3CCC(=O)NC3=O)C6=O)CC4)CC2)cc1Cl (stereo partly shown) [compound 29]
